Experimental data published in US7060277B2 (priority 1996, dated 2006).
Where “and” joins values, the source holds several entries; their conditions need not be identical. Equal entries are not always repeated.

Tested on: lethal dose of SEB in D-galactosamine-treated mouse model
Set-up: species or system BALB/c mice
Conditions: in vivo

lcT N K K K V T A Q E L D [pSEBLC(150–161)]
Percent Survival: 29% and 22%
